According to US12178805B2, “Inhibitors of PDE6Delta for use in the prevention and/or treatment of epilepsy and/or neurodegenerative disorders” (ReMYND N.V., priority 2017, dated 2024):
Blank lines part the entries; values can stand above or below the molecule they belong to.

Tests used:
[1] = tested on: VGCC activity in primary neurons; assay: KCl-induced Ca2+ influx (VGCC activity) in primary neurons; type: cell-based, mouse; settings: for inhibition at 10 µM: Mus musculus, Primary neuron, relative to vehicle treated neurons, KCl depolarisation, read-out: % inhibition of cytosolic Ca^2+ influx
Method: Examplary compound 6 was tested for its ability to inhibit VGCC activity in primary neurons. Neurons from mouse embryos were harvested and cultured using standard methods (such as used in Schlager et al., 2014. Cell reports, 8(5), pp. 1248-56). To stimulate VGCC activity, neurons were depolarized using 45 mM KCl and incubated with vehicle or 1.5 μM of compound. Calcium influx was measured using fluorescent cytosolic Ca^2+ detection reagent Fura2.
Changes in cytosolic Ca^2+ concentrations were measured after loading the cells with Fura-2 AM (Sigma-Aldrich), a cell permeable fluorescent probe for Ca^2+. Briefly, Fura-2-AM was dissolved in DMSO plus 20% Pluronic Acid (F-127) (Invitrogen) in a 1:1 ratio and diluted in medium to a final concentration of 0.5 μM. Probenecid (Sigma-Aldrich) was added to this loading medium at a final concentration of 2.5 mM. Then, culture medium was replaced by loading medium and after incubation for 1 hour at 37° C. cells were washed twice and replaced with HBSS (Gibco) supplemented with 0.2% FBS and 0.02M HEPES. Next, changes in cytosolic calcium were measured using a FlexStation 3 microplate reader (Molecular Devices) and quantified ratiometric, by calculating changes in the amount of cytosolic Ca^2+ bound Fura-2 (fluorescence intensity at 340 nm) relative to the amount of Ca^2+ unbound Fura-2 (fluorescence intensity at 380 nm). Data was processed in SoftMax Pro 5.4.6 software (Molecular Devices).
Compounds 1-7 were tested at 10 μM for their ability to inhibit Ca^2+ influx in primary neurons (FIG. 5) as described in Example 21 (Table 5). Primary neurons treated with vehicle in which no compound was dissolved was used as a no-effect control. The percentage (%) inhibition of Ca^2+ influx relative to vehicle treated neurons was calculated.

[2] = tested on: transgenic human APP mice; assay: Morris Water Maze test in transgenic APP mice; type: in vivo, mouse; settings: 20 mg/kg subcutaneously, daily for 8 weeks, versus vehicle
Method: Transgenic human 4-month old APP mice (THE JOURNAL OF BIOLOGICAL […] Vol. 274, No. 10, Issue of March 5, pp. 6483-6492, 1999) were treated subcutaneously, daily for 8 weeks with examplary Compound 6 at 20 mg/kg (FIG. 7). Cognition was assessed using the Morris Water Maze test. […] After the learning phase a probe test was conducted in which the platform was removed from the water bath to evaluate the spatial memory of the location of the platform.
Both indices indicate that compound treated mice have improved cognitive performance almost identical to wild type controls compared to vehicle treated mice.

[3] = tested on: phosphorylated TAU in brain; assay: in vivo TAU phosphorylation in brain of transgenic APP*PS1 mice, Western analysis; parameters: species or system mouse; settings: 20 mg/kg daily subcutaneously, 5-month old APP*PS1 mice, versus vehicle
Method: Transgenic human 5-month old APP*PS1 mice (The Journal of Neuroscience, Sep. 1, 2000, 20(17):6452-6458) were treated daily subcutaneously with 20 mg/kg Compound 6 or for two weeks with Compound A:
At the end of the treatment period, mice were sacrificed and the corresponding brains were used for biochemical analysis.

RAP1A silenced cells = assay: TAU-toxicity model in RAP1A silenced cells; type: cell-based, human; settings: compared with non-silenced cells
Method: (§1) The detailed method for determining cytotoxicity was as follows: From appropriate precultures of M17-3.1 and M17-TAU(P301L) cells were seeded at 2500 cells/cm2 in Optimem Reduced Serum without phenol red (Gibco, Cat. 31985-047) supplemented with 1% fetal calf serum, 1 mM sodium pyruvate, 1× non-essential amino acids, 500 μg/ml G418 0.5×antibiotic/antimycotic. After 3 hours of incubation at 37° C./5% CO2 1 volume of Optimem Reduced Serum (same as described above; except without fetal calf serum) supplemented with 2.5 μM all-trans retinoic acid (ATRA) was added. The cells were further incubated for 7 days. Subsequently, LDH activity was determined using Promega Cytotox 96 Non-Radioactive cytotoxicity assay, (Cat. G1780) according the supplier's instructions.

[4] = tested on: CA1 pyramidal neurons in tgAPP mouse brain slices; assay: firing rate of CA1 neurons in brain slices of tgAPP mice, patch clamp; settings: 2 μM, 1 hr perfusion
Method: Brain slices from wild type and tgAPP mice were incubated with DMSO or Compound 6. Neurons were stimulated with increasing currents and the frequency of action potentials was measured.
Acute sagittal brain slices from WT or hAPP mice were prepared by decapitation of the mice after isoflurane anaesthesia. Brains were removed quickly and immersed during 3-4 min in ice-cold freshly prepared cutting artificial cerebrospinal fluid (cutting aCSF) containing (in mM) 214 sucrose, 2.5 KCl, 2 CaCl2), 2 MgSO4, 1.25 NaH2PO2, 26 NaHCO3 and 10 glucose and oxygenated with 95% O2/5% CO2. Sagittal 350 μm slices were generated using a vibratome (VT 1000S; Leica Microsystems) and were incubated in standard carboxygenated aCSF (in mM: 125 NaCl, 2.5 KCl, 2 CaCl2), 2 MgSO4, 1.25 NaH2PO2, 26 NaHCO3 and 10 glucose, osmolarity 305 mOsm) at 34° C. during 20 min. The incubation continued at room temperature (RT) for another hour before each slice was transferred to a submerged recording chamber and perfused continuously with carboxygenated aCSF. […]
Dendritic firing rate of CA1 cells was recorded in response to hyperpolarizing and depolarizing steps (−0.4 to +0.45 nA, steps of 0.05 nA) after a 1 hr perfusion with vehicle or compound at 2 μM. […]

PDE6δ silenced cells = assay: TAU-toxicity model in PDE6δ silenced cells; type: cell-based, human; settings: compared with non-silenced cells
M17-TAU P301L cells = assay: TAU-toxicity model, LDH leakage of retinoic acid incubated M17-TAU P301L cells; type: cell-based, human; settings: non-silenced cells
Description: A TAU expression plasmid was constructed by sub-cloning the cDNA of human TAU-P301L (encoding for TAU with proline 301 substituted by a leucine residue) into mammalian expression vector pcDNA3.1 resulting in plasmid pcDNA3.1-TAU P301L. Plasmids pcDNA3.1 and pcDNA3.1-TAU P301L were transfected to human neuroblastoma cells ([…]; ATCC No. CRL-2267) and independent clonal lines with the plasmids stably integrated into the genome were selected. […] Expression of the TAU P301L genes in the cell lines was confirmed by Western analysis.
In degenerated or dead cells lactate dehydrogenase (LDH) leaks out of the cells into the extracellular environment due to a loss of plasma-membrane integrity. This principle was used to determine cytotoxicity by quantifying the level of leaked LDH into the growth medium relative to the sum of total LDH activity from living cells and dead cells.
as §1
The M17-TAU P301L cell line made it possible to assess the ability of novel compounds to inhibit PDE6δ and counteract TAU cytotoxicity. […] These measurements were used to calculate EC50 values.

mouse brain slices = assay: afterhyperpolarization of single action potentials in mouse brain slices; settings: slices incubated with compound versus vehicle
Method: A single spike was elicited by injecting a 2 ms depolarizing current pulse (35 pA) and action potential (AP) parameters were at baseline and after 25 min vehicle or compound perfusion.
Action potentials (AP) after electrical stimulation of mouse brain slices were analysed (FIG. 14).
The experiment was performed as described in Example 24.

[5] = tested on: primary rat hippocampal neurons; assay: ex-vivo inhibition of oligomeric amyloid beta (Aβo/ADDL) toxicity in primary neurons; type: cell-based; settings: 100 ng/mL, 1000 nM ADDL, 24 h
Method: An exemplary compound of this invention was tested for its ability to inhibit toxicity elicited by oligomeric amyloid beta (Aβo). Neurons from rat embryos were harvested and cultured using standard methods (such as used in Schlager et al., 2014. Cell reports, 8(5), pp. 1248-56.). Differentiated neurons were challenged with Aβo and viability was quantified.
At day in-vitro 19 days after isolation primary hippocampal neurons were transfected with Marcks-GFP in order to visualize the neurons with fluorescence microscopy.
ADDL (Abeta-derived diffusible ligands) preparation (representing Aβo) was done according to Klein (Klein, 2002. Neurochemistry international, 41(5), pp. 345-52.). Abeta 1-42 was purchased from AnaSpec Inc. and dissolved in HFIP to homogenize the peptide. HFIP was then evaporated in a speedvac and Abeta film was dried at −20° C. overnight over desiccant. Abeta film was then resolubilised in 100% DMSO and further diluted (1/25) in Ham's F12 medium. Blanks were prepared by adding equal amounts of DMSO to Ham's F12 medium. Abeta and Blank solutions were incubated overnight at 4° C.
At day in-vitro 21 primary rat hippocampal neurons were treated with equal volume of Blank/ADDL solution amounting to 0 and 1000 nM ADDL. Cultures were kept at 37° C. 5% CO2 for 24 h before PFA fixation. Viability was assessed using the Live-Dead assay from Thermo Fisher Catalog number: L3224.

RAP1A binding on PDE6δ = molecular target: T1, RAP1A binding on PDE6δ (Homo sapiens, UniProt O43924); assay: PDE6δ-STREP/HA pull-down from HEK293 cells with quantitative mass spectrometry of interactors; type: cell-based; settings: 1 hour incubation of 1 μM
T1 construct: expressed in transfected cells
Description: PDE6δ together with associated proteins was precipitated from a cellular extract either in the presence or absence of Compound A:
Using mass spectrometry based techniques interacting proteins were quantitatively identified in function of compound presence (FIG. 11).
In the absence of Compound A a host of interacting proteins were identified including known interactors such as Arl3 and RPGR. […] This effect is highly specific since a non-prenylated interactor of PDE6δ such as Arl3 which bind PDE6δ via different mechanisms is not impacted.
The cDNA encoding human PDE6δ was fused with a STREP-HA tag encoding DNA sequence and expressed in HEK293 cells using a standard expression vector. The bait sequence was verified by sequencing. […] Bait expression and solubility was monitored by immunoblotting using anti-HA antibodies. […]
Affinity purification and mass spectrometrical analysis of PDE6δ-strep-HA expressed in HEK293 cells was performed with three biological replicates for label free quantitative mass spectrometrical analysis. The samples were analyzed on a Thermo LTQ Orbitrap XL spectrometer using a C18 column, ESI and a 60 min gradient. The signals' intenstity are provided as 2 Log values and correlates to the concentration of the detected mass (number/amount of peptide). […]

T1 sequence (O43924 whole entry): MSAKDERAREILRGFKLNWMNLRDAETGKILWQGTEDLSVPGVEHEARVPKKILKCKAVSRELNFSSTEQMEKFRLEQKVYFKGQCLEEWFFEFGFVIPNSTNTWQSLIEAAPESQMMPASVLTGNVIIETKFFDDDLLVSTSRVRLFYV

SMILES: O=C(NCCc1c[nH]c2ccc(F)cc12)c1cc(Cc2ccc(F)cc2F)on1 [Compound 1]
inhibition at 10 µM [1]: 43%

SMILES: O=C(NCCc1c[nH]c2ccc(F)cc12)c1cc(Cc2ccc(F)c(F)c2)on1 [Compound 2]
inhibition at 10 µM [1]: 48%

SMILES: O=C(NCCc1c[nH]c2ccc(F)cc12)c1cc(Cc2cc(F)cc(F)c2)on1 [Compound 3]
inhibition at 10 µM [1]: 42%

SMILES: O=C(NCCc1c[nH]c2ccc(F)cc12)c1cc(Cc2ccc(F)cc2)on1 [Compound 4]
inhibition at 10 µM [1]: 39%

SMILES: O=C(NCCc1c[nH]c2ccc(F)cc12)c1cc(Cc2cccc(F)c2F)on1 [Compound 5]
inhibition at 10 µM [1]: 42%

SMILES: O=C(NCCc1c[nH]c2ccc(F)cc12)c1cc(Cc2cc(F)ccc2F)on1 [Compound 6]
annulus crossing index in probe test [2]: higher annulus crossing index score | search path during training phase [2]: reduced search path | TAU phosphorylation in brain extracts [3]: effectively reduced TAU phosphorylation | Ca^2+ influx upon KCl depolarisation ([1]; 1.5 μM, 45 mM KCl): significantly reduced | inhibition at 10 µM [1]: 43% | compound effect on reducing neurotoxicity in RAP1A silenced cells (RAP1A silenced cells): strongly reduced | frequency of action potentials at high stimulation [4]: significantly lowered the frequency towards wild type level | effect of the compound on lowering toxicity in PDE6δ silenced cells (PDE6δ silenced cells): strongly reduced | effect on TAU-induced toxicity (M17-TAU P301L cells): reduced toxicity | afterhyperpolarization of action potentials (mouse brain slices): increased | neuronal viability in Aβo treated neurons [5]: strongly rescued

SMILES: O=C(NCCc1c[nH]c2ccc(F)cc12)c1cc(Cc2ccccc2F)on1 [Compound 7]
inhibition at 10 µM [1]: 56%

interaction of Arl3 (non-prenylated interactor) with PDE6δ (RAP1A binding on PDE6δ): not impacted | interaction of RAP1A with PDE6δ (RAP1A binding on PDE6δ): specifically reduced
SMILES: O=C(NCCc1c[nH]c2ccc(Cl)cc12)c1cc(Cc2cc(F)ccc2F)on1 [Compound A]

SMILES: c1ccc(Cn2c(-c3ccc(OC[C@H](C4CCNCC4)n4c(-c5ccccc5)nc5ccccc54)cc3)nc3ccccc32)cc1 [Deltarasin, reference compound]
effect of the compound on lowering toxicity in PDE6δ silenced cells (PDE6δ silenced cells): strongly reduced | effect on TAU-induced toxicity (M17-TAU P301L cells): lowered toxicity

SMILES: COC(=O)C1=C(C)NC(C)=C(C(=O)OC(C)C)C1c1cccc2nonc12 (stereo not shown) [isradepine]
effect on TAU-induced toxicity (M17-TAU P301L cells): lowered toxicity
